From patent publication US7524510B2, “Alkyl-glycoside enhanced vaccination” (The UAB Research Foundation, priority 2005, dated 2009)

Columns and labels:
mice [1] = assay: Enhancement of potency of E. coli-vectored epicutaneous vaccine, co-administered without ablation of the stratum corneum; type: in vivo, mouse; conditions: topical E. coli vector expressing tetC mixed with TDM, skin not ablated by brushing, sera 2 months postimmunization
Experimental: Preliminary tests of the ability of tetradecyl-β-D maltoside (purchased from Anatrace) to enhance the potency of an E. coli-vectored epicutaneous vaccine when co-administered without ablation of the stratum corneum were conducted. Specifically, mice were immunized by topical application of an E. coli vector expressing tetC mixed with TDM at the indicated concentration and sera were analyzed 2 months postimmunization.

mice [2] = assay: Enhancement of potency of adenovirus-vectored epicutaneous vaccine, co-administered without ablation of the stratum corneum; type: in vivo, mouse; conditions: topical adenovirus vector expressing tetC mixed with TDM, no ablation of stratum corneum, sera 1 month postimmunization
Experimental: Tests of the ability of TDM to enhance the potency of an adenovirus-vectored epicutaneous vaccine when co-administered without ablation of the stratum comeum were also conducted. Here, mice were immunized by topical application of an adenovirus vector expressing tetC mixed with TDM at the indicated concentration, and sera were analyzed 1 month postimmunization.

Mouse skin = assay: Permeabilization of stratum corneum, electron microscopy of cutaneous architecture; type: in vivo; conditions: mouse skin ablated by mechanical brushing, topical TDM incubated 15 min with naked skin
Experimental: Mouse skin was ablated by mechanical brushing prior to topical application of TDM, followed by incubation of TDM at the indicated concentration with naked skin for 15 min, followed by examination of the cutaneous architecture under an electron microscope.

CCCCCCCCCCCCCCO[C@@H]1O[C@H](CO)[C@@H](O[C@H]2O[C@H](CO)[C@@H](O)[C@H](O)[C@H]2O)[C@H](O)[C@H]1O [TDM, tetradecyl-β-D-maltoside]
enhancement of the potency of an E. coli-vectored epicutaneous vaccine (sera analyzed) (mice [1]): No increase over the control | enhancement of the potency of an adenovirus-vectored epicutaneous vaccine (sera analyzed) (mice [2]): No significant increase over the control | effect on stratum corneum (cutaneous architecture under electron microscope) (Mouse skin): permeablization of the stratum comeum
